Some test systems named below: DMS 114 small cell lung; DMS 273 small cell lung; HOP-18 NSCLC; KM20L2 colon; M19-MEL melanoma; RXF-631 renal; XF 498 CNS; MDA-N; T-47D breast.
What all share (test): DTP human tumour cell line panel, 48 h

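Growth conditions: 96-well plates. Treatment: test compound, 48 hours, 5 concentrations. Analysis: linear interpolation between bracketing concentrations; unreached endpoints set to highest concentration. TGI is the concentration that stops growth completely.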 Bounds are passed on as bounds.

Take `COc1ccccc1NC(=O)C1=C(C)NC(C)=C(C(=O)Nc2ccccc2OC)C1c1ccc(C2C(C(=O)Nc3ccccc3OC)=C(C)NC(C)=C2C(=O)Nc2ccccc2OC)cc1`: the concentration for total growth inhibition (TGI) (in general, the concentration giving total growth inhibition) was found to be 21.6 µM with DMS 114 small cell lung; 8.67 µM with DMS 273 small cell lung; 31.9 µM with HOP-18 NSCLC; 3.39 µM in the test with KM20L2 colon; 11.5 µM in the test with M19-MEL melanoma; 13.7 µM with RXF-631 renal. This compound also had a TGI in the test with XF 498 CNS of 5.64 µM.
As to `COc1ccc(C2C(C(=O)O)=C(CO)Oc3cc4c(cc32)OCO4)c(OC)c1` (stereo unspecified), the TGI in the test with DMS 114 small cell lung, in the test with DMS 273 small cell lung, with HOP-18 NSCLC, with KM20L2 colon, with M19-MEL melanoma and with RXF-631 renal was greater than 100 µM throughout. The TGI with XF 498 CNS is greater than 100 µM.
For the compound `CC(C(=O)c1ccc(O)cc1)C1(O)C(=O)Nc2c(Cl)cc(Cl)cc21` (stereo unspecified), the TGI is 24.2 µM in the test on DMS 114 small cell lung; greater than 100 µM with DMS 273 small cell lung; greater than 100 µM in the test on KM20L2 colon; 57.6 µM in the test on M19-MEL melanoma; greater than 100 µM in the test on RXF-631 renal; 47.8 µM with XF 498 CNS.
On to `[N-]=[N+]=Nc1nnc(CCCCc2nnc(N=[N+]=[N-])o2)o1`, for which the TGI with DMS 114 small cell lung is greater than 100 µM; with HOP-18 NSCLC it was greater than 100 µM; in the test with KM20L2 colon, greater than 100 µM; with M19-MEL melanoma, greater than 100 µM; with RXF-631 renal, 58.1 µM; with XF 498 CNS, greater than 100 µM.
`COC(=O)CCC(=O)Nc1cc(C)ccc1C`: the concentration for total growth inhibition (TGI) in the test with DMS 114 small cell lung, with DMS 273 small cell lung, in the test on HOP-18 NSCLC, in the test with M19-MEL melanoma, with RXF-631 renal and in the test with XF 498 CNS was greater than 100 µM throughout.
With `CN(C)C(=S)/N=C(\N)N(C)C`, the TGI in the test with DMS 114 small cell lung, in the test with DMS 273 small cell lung, in the test on HOP-18 NSCLC, in the test with KM20L2 colon, with M19-MEL melanoma and with RXF-631 renal was greater than 100 µM in each case. Further, in the test with XF 498 CNS, the TGI was greater than 100 µM.
Turning to `Cc1cccc(/C=N/N=C(\N)NO)n1`, the TGI with DMS 114 small cell lung, in the test on DMS 273 small cell lung, in the test with M19-MEL melanoma, in the test with RXF-631 renal and with XF 498 CNS was greater than 100 µM throughout.
With `CCOC(=O)C1=C(Nc2cccc3ccccc23)OCC1=O`, the total growth inhibition concentration (TGI) in the test on DMS 273 small cell lung, with KM20L2 colon, with RXF-631 renal and with XF 498 CNS was greater than 100 µM each time.
For the compound `O=C(/C=C/c1ccco1)N1CCN(Cc2ccccc2)CC1`, the TGI in the test on DMS 114 small cell lung, in the test on DMS 273 small cell lung, with HOP-18 NSCLC, in the test with KM20L2 colon, with M19-MEL melanoma and in the test on RXF-631 renal was greater than 100 µM in each case. The concentration for total growth inhibition (TGI) with XF 498 CNS is greater than 100 µM.
As to `NC(=S)N/N=C1/C(=O)N(c2ccccc2)C(=O)C1C(=O)Nc1ccccc1` (stereo unspecified), the TGI with DMS 114 small cell lung, in the test with DMS 273 small cell lung, with HOP-18 NSCLC, with KM20L2 colon, in the test on M19-MEL melanoma and in the test with RXF-631 renal was greater than 100 µM in each case. Also, the TGI in the test on XF 498 CNS is greater than 100 µM.
As for `COc1ccccc1C(=O)Nc1ccc(Cl)c(C(=O)OC(C)C)c1`, the total growth inhibition concentration (TGI) was 63.8 µM in the test with DMS 114 small cell lung; greater than 100 µM in the test with DMS 273 small cell lung; greater than 100 µM in the test on HOP-18 NSCLC; greater than 100 µM in the test with KM20L2 colon; greater than 100 µM with M19-MEL melanoma; greater than 100 µM in the test on MDA-N. The TGI is greater than 100 µM with RXF-631 renal, 60.1 µM in the test on T-47D breast and 54.7 µM in the test on XF 498 CNS.
Turning to `CC(C)=CC1(C)/C(=N\O)C(C)(CC(C)C)C(=O)N1O` (stereo unspecified), the total growth inhibition concentration (TGI) with DMS 114 small cell lung, in the test with DMS 273 small cell lung, in the test with KM20L2 colon, in the test on M19-MEL melanoma, in the test on RXF-631 renal and in the test on XF 498 CNS was greater than 100 µM each time.
For `C=CCC(O)c1cc(OC)ccc1OC` (stereo unspecified), the total growth inhibition concentration (TGI) with DMS 114 small cell lung, in the test on DMS 273 small cell lung, in the test with M19-MEL melanoma, in the test with RXF-631 renal and in the test on XF 498 CNS was greater than 100 µM in each case.
In the case of `CCOc1ccc2c(c1)[n+]([O-])c(-c1ccc([N+](=O)[O-])cc1)c(N)[n+]2[O-]`, the TGI in the test with DMS 114 small cell lung, in the test with DMS 273 small cell lung, in the test with HOP-18 NSCLC, in the test on KM20L2 colon, in the test with M19-MEL melanoma and with RXF-631 renal was greater than 100 µM each time.
On to `Nc1ncnc2c1N=CN(Oc1ccccc1)N2`, for which the concentration for total growth inhibition (TGI) in the test with DMS 114 small cell lung, in the test on DMS 273 small cell lung, with KM20L2 colon, in the test with M19-MEL melanoma, in the test on RXF-631 renal and in the test on XF 498 CNS was greater than 100 µM throughout.
Regarding `CNC(=O)NCCCCC(NC(=O)OCc1ccccc1)C(=O)OCc1ccccc1` (stereo unspecified), the TGI in the test on DMS 114 small cell lung was 65.7 µM; with DMS 273 small cell lung, greater than 100 µM; in the test on KM20L2 colon, greater than 100 µM; with M19-MEL melanoma it was 48 µM; in the test on RXF-631 renal, 46.1 µM; in the test on XF 498 CNS, 33.2 µM.
As for `CC1=C(C(=O)NCc2ccccc2)C(c2ccc(N(C)C)cc2)C(C(=O)NCc2ccccc2)=C(C)N1`, the TGI with DMS 114 small cell lung, with DMS 273 small cell lung, in the test with KM20L2 colon, in the test on M19-MEL melanoma, in the test on RXF-631 renal and with XF 498 CNS was greater than 100 µM in each case.

These data come from PubChem BioAssay (NCI).
